Values of other authors as cited in patent publication US20060008806A1, “Method for producing novel DNA sequence with biological activity” (University of Washington, priority 1986, published 2006).

tested on: β-lactamases; conditions: Labia, et al., 1979

SMILES | Km [µM]
CC1(C)S[C@@H]2[C@H](NC(=O)[C@H](N)c3ccccc3)C(=O)N2[C@H]1C(=O)O [ampicillin] | 31
CC1(C)S[C@@H]2[C@H](NC(=O)Cc3ccccc3)C(=O)N2[C@H]1C(=O)O [benzylpenicillin] | 21
CC1(C)S[C@@H]2[C@H](NC(=O)C(C(=O)O)c3ccccc3)C(=O)N2[C@H]1C(=O)O (stereo partly drawn) [carbenicillin] | 10
